The values below come from paper PMC4661928, “Production of Two Novel Methoxy-Isoflavones from Biotransformation of 8-Hydroxydaidzein by Recombinant Escherichia coli Expressing O-Methyltransferase SpOMT2884 from Streptomyces peucetius” (International Journal of Molecular Sciences, 2015).

This experiment addresses T1, SpOMT2884 (Streptomyces peucetius, UniProt T1WTM5).
T1 construct: gene OMT2884; codon-optimised synthetic gene in pETDuet-1 (NdeI/XhoI), expressed in E. coli BL21(DE3); whole-cell biotransformation, not purified
T1 sequence (T1WTM5 1-223): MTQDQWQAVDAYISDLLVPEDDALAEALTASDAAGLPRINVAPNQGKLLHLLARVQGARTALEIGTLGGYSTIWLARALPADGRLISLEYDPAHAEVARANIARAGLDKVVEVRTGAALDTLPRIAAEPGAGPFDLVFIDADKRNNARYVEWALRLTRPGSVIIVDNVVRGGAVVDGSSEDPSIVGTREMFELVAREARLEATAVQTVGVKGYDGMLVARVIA
Briefly: whole-cell biotransformation, UPLC; products by MS and NMR. The format is cell-based. The note with it: recombinant E. coli BL21(DE3), 0.1 mM substrate, 37 °C, endogenous SAM; 7-O- and 8-O-methylation.

Take `O=c1c(-c2ccc(O)cc2)coc2c(O)c(O)ccc12` [8-hydroxydaidzein]: the “whole-cell biotransformation, UPLC; products by MS and NMR” value is on record as “SpOMT2884 catalyzes either 7-O-methylation or 8-O-methylation in 8-hydroxydaidzein”.
